For this series the following is noted: 25 °C.

In brackets after ≈: the same amount, converted by molar mass.

As a reminder, the solubility is how much of the substance goes into solution per volume. Low readings indicate a poorly soluble substance, high ones a readily soluble substance. `ICCI` gave a solubility of 0.606 mM (≈ 171 µg/mL).
Consider `CC(C)[C@@H](C)CO`, for which the solubility was found to be 427 mM (≈ 43600 µg/mL).
In turn, `CC(C)c1ccccc1Br` gave a solubility of 0.0646 mM (≈ 12.9 µg/mL).
The same measure for `Cc1c2ccccc2cc2c1cc(F)c1ccccc12`: 4.9e-05 mM (≈ 0.0127 µg/mL); for `C=COC1CC1`: 79.4 mM (≈ 6680 µg/mL); for `CC(C)OC=O`: 235 mM (≈ 20700 µg/mL).
Compound `Brc1cc(Br)cc(Br)c1` had a solubility of 0.00251 mM (≈ 0.79 µg/mL).
`CC1CCOC1` (stereo unspecified) gave a solubility of 1230 mM (≈ 106000 µg/mL).
Under `Sc1ccccc1` stands 7.58 mM (≈ 835 µg/mL).
Take `CCc1ccccc1Br`: the solubility is 0.214 mM (≈ 39.5 µg/mL).
Take `CCS`: the solubility was 166 mM (≈ 10300 µg/mL).
Under `Cc1ccc(Br)cc1` stands 0.643 mM (≈ 110 µg/mL); under `CCC(C)OC` (stereo unspecified), 186 mM (≈ 16400 µg/mL).
The same measure for `CCOC(=O)CCCC(=O)OCC`: 46.8 mM (≈ 8810 µg/mL); for `Brc1ccccc1Br`: 0.316 mM (≈ 74.6 µg/mL).
Under `CCCC(C)(C)CO` stands 33.1 mM (≈ 3850 µg/mL).

These data come from the OPERA property sets (Mansouri et al. 2018).
